# According to ChEMBL document CHEMBL4507300 (2021):
# Experiments:
# [1] = target: Mitogen-activated protein kinase kinase kinase 11 (Homo sapiens) (UniProt Q16584); details: Compound concentration 1000.0 nM
# [2] = target: Serine/threonine-protein kinase RIO3 (Homo sapiens) (UniProt O14730); details: Compound concentration 1000.0 nM
# [3] = target: 5-hydroxytryptamine receptor 2C (Homo sapiens) (UniProt P28335); details: Compound concentration 10.0 uM
# [4] = target: cAMP-dependent protein kinase catalytic subunit beta (Homo sapiens) (UniProt P22694); details: Compound concentration 1000.0 nM
# [5] = target: Serine/threonine-protein kinase 35 (Homo sapiens) (UniProt Q8TDR2); details: Compound concentration 1000.0 nM
# [6] = target: Serine/threonine-protein kinase SIK2 (Homo sapiens) (UniProt Q9H0K1); details: Compound concentration 1000.0 nM
# Sequence of Serine/threonine-protein kinase SIK2 (Homo sapiens) (Q9H0K1 whole entry, looked up): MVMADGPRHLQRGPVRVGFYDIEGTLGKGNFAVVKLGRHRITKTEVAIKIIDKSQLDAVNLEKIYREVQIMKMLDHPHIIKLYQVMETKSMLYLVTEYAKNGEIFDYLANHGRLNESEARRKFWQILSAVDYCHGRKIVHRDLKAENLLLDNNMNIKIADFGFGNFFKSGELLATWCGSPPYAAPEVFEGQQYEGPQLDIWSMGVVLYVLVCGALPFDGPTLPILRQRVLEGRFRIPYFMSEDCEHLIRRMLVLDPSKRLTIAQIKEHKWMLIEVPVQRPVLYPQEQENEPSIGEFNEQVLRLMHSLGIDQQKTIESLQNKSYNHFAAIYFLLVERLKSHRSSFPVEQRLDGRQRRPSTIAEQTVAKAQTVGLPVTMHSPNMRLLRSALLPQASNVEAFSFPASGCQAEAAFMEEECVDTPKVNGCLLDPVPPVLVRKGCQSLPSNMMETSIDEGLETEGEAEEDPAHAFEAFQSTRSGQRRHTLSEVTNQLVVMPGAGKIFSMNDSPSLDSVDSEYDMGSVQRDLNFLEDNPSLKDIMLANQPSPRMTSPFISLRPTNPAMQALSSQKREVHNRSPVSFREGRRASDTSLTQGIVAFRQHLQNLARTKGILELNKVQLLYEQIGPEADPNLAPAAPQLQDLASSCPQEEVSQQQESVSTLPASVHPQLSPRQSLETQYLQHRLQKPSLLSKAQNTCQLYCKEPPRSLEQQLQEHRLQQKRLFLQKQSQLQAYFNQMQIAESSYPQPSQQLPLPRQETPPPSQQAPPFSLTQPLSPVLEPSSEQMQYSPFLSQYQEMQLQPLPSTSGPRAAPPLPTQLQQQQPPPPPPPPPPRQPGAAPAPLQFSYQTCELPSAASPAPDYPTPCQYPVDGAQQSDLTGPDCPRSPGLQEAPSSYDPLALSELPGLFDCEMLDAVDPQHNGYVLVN
# [7] = target: Serine/threonine-protein kinase WNK1 (Homo sapiens) (UniProt Q9H4A3); details: Compound concentration 1000.0 nM
# [8] = target: Serine/threonine-protein kinase NLK (Homo sapiens) (UniProt Q9UBE8); details: Compound concentration 1000.0 nM
# [9] = target: Tyrosine-protein kinase receptor UFO (Homo sapiens) (UniProt P30530); details: Compound concentration 1000.0 nM
# [10] = target: Calcium/calmodulin-dependent protein kinase type II subunit alpha (Homo sapiens) (UniProt Q9UQM7); details: Compound concentration 1000.0 nM
# Sequence of Calcium/calmodulin-dependent protein kinase type II subunit alpha (Homo sapiens) (Q9UQM7 whole entry, canonical isoform): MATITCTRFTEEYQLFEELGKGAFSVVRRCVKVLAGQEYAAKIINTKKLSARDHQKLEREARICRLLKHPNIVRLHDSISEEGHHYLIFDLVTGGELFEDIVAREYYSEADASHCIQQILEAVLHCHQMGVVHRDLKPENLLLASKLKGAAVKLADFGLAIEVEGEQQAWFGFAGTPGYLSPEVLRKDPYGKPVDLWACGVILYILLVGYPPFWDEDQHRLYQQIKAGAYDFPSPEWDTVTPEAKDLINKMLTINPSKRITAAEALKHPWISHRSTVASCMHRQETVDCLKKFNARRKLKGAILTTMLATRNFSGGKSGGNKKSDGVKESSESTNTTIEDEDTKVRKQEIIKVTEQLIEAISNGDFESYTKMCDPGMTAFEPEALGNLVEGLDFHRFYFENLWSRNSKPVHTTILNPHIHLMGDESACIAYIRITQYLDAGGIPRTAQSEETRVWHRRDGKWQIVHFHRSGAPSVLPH
# [11] = target: Phosphorylase b kinase gamma catalytic chain, skeletal muscle/heart isoform (Homo sapiens) (UniProt Q16816); details: Compound concentration 1000.0 nM
# [12] = target: Cyclin-dependent kinase 14 (Homo sapiens) (UniProt O94921); details: Compound concentration 1000.0 nM
# Sequence of Cyclin-dependent kinase 14 (Homo sapiens) (O94921 whole entry): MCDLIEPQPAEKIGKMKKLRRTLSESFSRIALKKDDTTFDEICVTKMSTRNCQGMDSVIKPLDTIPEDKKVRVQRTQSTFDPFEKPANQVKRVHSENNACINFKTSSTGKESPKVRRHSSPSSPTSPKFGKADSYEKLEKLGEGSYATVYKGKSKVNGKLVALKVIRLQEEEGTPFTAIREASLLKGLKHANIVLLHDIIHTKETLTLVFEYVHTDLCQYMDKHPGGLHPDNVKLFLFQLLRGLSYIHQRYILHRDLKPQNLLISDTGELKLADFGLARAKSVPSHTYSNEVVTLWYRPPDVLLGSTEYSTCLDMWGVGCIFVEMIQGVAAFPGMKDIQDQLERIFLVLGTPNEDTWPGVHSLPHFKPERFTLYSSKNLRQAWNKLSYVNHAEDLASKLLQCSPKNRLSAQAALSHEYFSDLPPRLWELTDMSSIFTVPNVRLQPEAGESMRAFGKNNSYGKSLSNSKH
# [13] = target: Interleukin-1 receptor-associated kinase 4 (Homo sapiens) (UniProt Q9NWZ3); details: Compound concentration 1000.0 nM
# [14] = target: Serine/threonine-protein kinase TAO3 (Homo sapiens) (UniProt Q9H2K8); details: Compound concentration 1000.0 nM
# [15] = target: Cyclin-dependent kinase-like 5 (Homo sapiens) (UniProt O76039); details: Compound concentration 1000.0 nM
# Sequence of Cyclin-dependent kinase-like 5 (Homo sapiens) (O76039 whole entry): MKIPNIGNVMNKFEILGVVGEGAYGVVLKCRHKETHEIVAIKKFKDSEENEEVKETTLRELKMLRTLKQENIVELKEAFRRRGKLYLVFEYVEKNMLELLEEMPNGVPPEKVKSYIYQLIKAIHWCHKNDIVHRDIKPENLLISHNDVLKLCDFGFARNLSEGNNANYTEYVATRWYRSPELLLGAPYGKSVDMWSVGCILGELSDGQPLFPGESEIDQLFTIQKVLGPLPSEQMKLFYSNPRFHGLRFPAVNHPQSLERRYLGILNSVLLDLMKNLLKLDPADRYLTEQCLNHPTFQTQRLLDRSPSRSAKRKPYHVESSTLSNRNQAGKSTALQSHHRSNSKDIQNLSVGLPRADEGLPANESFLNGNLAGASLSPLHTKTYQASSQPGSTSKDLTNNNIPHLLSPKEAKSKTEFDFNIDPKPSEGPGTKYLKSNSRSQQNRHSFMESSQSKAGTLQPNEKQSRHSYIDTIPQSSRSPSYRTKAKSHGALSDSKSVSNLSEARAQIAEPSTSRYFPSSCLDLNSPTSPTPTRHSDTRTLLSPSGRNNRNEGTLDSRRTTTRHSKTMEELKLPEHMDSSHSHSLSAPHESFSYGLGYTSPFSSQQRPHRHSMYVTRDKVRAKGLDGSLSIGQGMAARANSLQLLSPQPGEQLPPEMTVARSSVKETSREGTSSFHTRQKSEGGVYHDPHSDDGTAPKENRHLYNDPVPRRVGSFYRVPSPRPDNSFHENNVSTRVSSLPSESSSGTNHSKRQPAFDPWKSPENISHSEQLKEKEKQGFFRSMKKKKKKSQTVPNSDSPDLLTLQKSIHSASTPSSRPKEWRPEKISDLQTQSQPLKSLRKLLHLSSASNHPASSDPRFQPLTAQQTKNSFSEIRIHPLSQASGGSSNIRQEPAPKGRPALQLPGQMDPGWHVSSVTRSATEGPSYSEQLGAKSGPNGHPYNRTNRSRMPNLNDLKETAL
# [16] = target: G protein-coupled receptor kinase 4 (Homo sapiens) (UniProt P32298); details: Compound concentration 1000.0 nM
# [17] = target: Cyclin-dependent kinase-like 1 (Homo sapiens) (UniProt Q00532); details: Compound concentration 1000.0 nM
# [18] = target: Bone morphogenetic protein receptor type-1B (Homo sapiens) (UniProt O00238); details: Compound concentration 1000.0 nM
# [19] = target: Phosphatidylinositol 3-kinase C2 domain-containing subunit gamma (Homo sapiens) (UniProt O75747); details: Compound concentration 1000.0 nM
# [20] = target: Serine/threonine-protein kinase PAK 4 (Homo sapiens) (UniProt O96013); details: Compound concentration 1000.0 nM
# [21] = target: Maternal embryonic leucine zipper kinase (Homo sapiens) (UniProt Q14680); details: Compound concentration 1000.0 nM
# [22] = target: Serine/threonine-protein kinase 16 (Homo sapiens) (UniProt O75716); details: Compound concentration 1000.0 nM
# Sequence of Serine/threonine-protein kinase 16 (Homo sapiens) (O75716 whole entry): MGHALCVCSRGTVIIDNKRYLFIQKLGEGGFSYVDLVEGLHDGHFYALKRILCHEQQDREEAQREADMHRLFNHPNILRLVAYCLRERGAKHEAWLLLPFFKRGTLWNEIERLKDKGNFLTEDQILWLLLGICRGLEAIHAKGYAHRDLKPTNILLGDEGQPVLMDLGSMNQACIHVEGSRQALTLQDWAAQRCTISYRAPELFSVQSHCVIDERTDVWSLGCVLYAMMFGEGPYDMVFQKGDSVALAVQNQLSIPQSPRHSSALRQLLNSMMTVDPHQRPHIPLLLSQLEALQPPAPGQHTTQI
# [23] = target: Cyclin-dependent kinase 5 (Homo sapiens) (UniProt Q00535); details: Compound concentration 1000.0 nM
# [24] = target: Serine/threonine-protein kinase TAO1 (Homo sapiens) (UniProt Q7L7X3); details: Compound concentration 1000.0 nM
# [25] = target: Tyrosine-protein kinase Fgr (Homo sapiens) (UniProt P09769); details: Compound concentration 1000.0 nM
# [26] = target: 1-phosphatidylinositol 3-phosphate 5-kinase (Homo sapiens) (UniProt Q9Y2I7); details: Compound concentration 1000.0 nM
# [27] = target: Rhodopsin kinase GRK7 (Homo sapiens) (UniProt Q8WTQ7); details: Compound concentration 1000.0 nM
# [28] = target: Casein kinase I isoform epsilon (Homo sapiens) (UniProt P49674); details: Compound concentration 1000.0 nM
# Sequence of Casein kinase I isoform epsilon (Homo sapiens) (P49674 whole entry, looked up, canonical isoform): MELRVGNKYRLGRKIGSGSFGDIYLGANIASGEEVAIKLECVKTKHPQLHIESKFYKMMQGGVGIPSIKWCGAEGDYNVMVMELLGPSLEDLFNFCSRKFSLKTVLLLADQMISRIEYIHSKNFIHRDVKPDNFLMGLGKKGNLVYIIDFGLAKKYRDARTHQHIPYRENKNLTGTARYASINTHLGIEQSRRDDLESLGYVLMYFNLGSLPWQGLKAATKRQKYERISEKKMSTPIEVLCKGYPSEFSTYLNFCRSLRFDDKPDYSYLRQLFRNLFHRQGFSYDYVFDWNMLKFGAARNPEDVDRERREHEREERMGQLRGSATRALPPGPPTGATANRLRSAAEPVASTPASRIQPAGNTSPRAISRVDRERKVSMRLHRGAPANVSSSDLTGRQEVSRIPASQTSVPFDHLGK
# [29] = species on record: Rattus norvegicus; details: Compound concentration 10.0 uM
# [30] = target: Insulin receptor (Homo sapiens) (UniProt P06213); details: Compound concentration 1000.0 nM
# [31] = tested on: Phosphatidylinositol 4,5-bisphosphate 3-kinase catalytic subunit alpha isoform (Homo sapiens), P42336 [Q546K]; details: Compound concentration 1000.0 nM
# [32] = tested on: Leucine-rich repeat serine/threonine-protein kinase 2 (Homo sapiens), Q5S007 [G2019S]; details: Compound concentration 1000.0 nM
# [33] = target: Tyrosine-protein kinase ZAP-70 (Homo sapiens) (UniProt P43403); details: Compound concentration 1000.0 nM
# [34] = target: Serine/threonine-protein kinase N1 (Homo sapiens) (UniProt Q16512); details: Compound concentration 1000.0 nM
# [35] = tested on: Tyrosine-protein kinase ABL1 (Homo sapiens), P00519 [E255K]; details: Compound concentration 1000.0 nM
# [36] = tested on: Mast/stem cell growth factor receptor Kit (Homo sapiens), P10721 [D816V]; details: Compound concentration 1000.0 nM
# [37] = target: Mitogen-activated protein kinase 3 (Homo sapiens) (UniProt P27361); details: Compound concentration 1000.0 nM
# [38] = target: Ephrin type-B receptor 3 (Homo sapiens) (UniProt P54753); details: Compound concentration 1000.0 nM
# [39] = target: Inhibitor of nuclear factor kappa-B kinase subunit beta (Homo sapiens) (UniProt O14920); details: Compound concentration 1000.0 nM
# [40] = target: Cyclin-dependent kinase 2 homolog (Plasmodium falciparum (isolate 3D7)) (UniProt P61075); details: Compound concentration 1000.0 nM
# [41] = target: Ribosomal protein S6 kinase alpha-3 (Homo sapiens) (UniProt P51812); details: Compound concentration 1000.0 nM
# [42] = target: Serine/threonine-protein kinase 17A (Homo sapiens) (UniProt Q9UEE5); details: Compound concentration 1000.0 nM
# [43] = target: Histamine H1 receptor (Homo sapiens, UniProt P35367); experiment: GPCRScan assay: inhibition of H1; set-up: radioligand conc. used [nm] 0.6 – 2.0, parental cells stable HEK
# [44] = target: Wee1-like protein kinase 2 (Homo sapiens) (UniProt P0C1S8); details: Compound concentration 1000.0 nM
# Sequence of Wee1-like protein kinase 2 (Homo sapiens) (P0C1S8 whole entry, looked up): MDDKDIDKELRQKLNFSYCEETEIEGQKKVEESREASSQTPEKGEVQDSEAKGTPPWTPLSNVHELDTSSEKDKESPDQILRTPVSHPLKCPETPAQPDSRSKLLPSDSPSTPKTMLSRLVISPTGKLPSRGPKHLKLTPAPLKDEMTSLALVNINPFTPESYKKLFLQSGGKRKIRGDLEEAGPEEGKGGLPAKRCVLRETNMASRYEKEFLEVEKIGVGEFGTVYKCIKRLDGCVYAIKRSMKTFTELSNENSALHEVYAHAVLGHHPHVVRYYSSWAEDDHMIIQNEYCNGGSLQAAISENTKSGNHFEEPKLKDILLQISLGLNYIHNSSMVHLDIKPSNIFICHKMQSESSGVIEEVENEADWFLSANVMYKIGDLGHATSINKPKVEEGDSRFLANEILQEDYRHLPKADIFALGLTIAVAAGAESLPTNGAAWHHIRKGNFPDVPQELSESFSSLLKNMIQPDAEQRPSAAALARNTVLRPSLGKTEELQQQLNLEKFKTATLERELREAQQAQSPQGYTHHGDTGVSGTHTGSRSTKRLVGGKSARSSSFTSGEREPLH
# [45] = target: Cyclin-dependent kinase 3 (Homo sapiens) (UniProt Q00526); details: Compound concentration 1000.0 nM
# Sequence of Cyclin-dependent kinase 3 (Homo sapiens) (Q00526 whole entry, looked up): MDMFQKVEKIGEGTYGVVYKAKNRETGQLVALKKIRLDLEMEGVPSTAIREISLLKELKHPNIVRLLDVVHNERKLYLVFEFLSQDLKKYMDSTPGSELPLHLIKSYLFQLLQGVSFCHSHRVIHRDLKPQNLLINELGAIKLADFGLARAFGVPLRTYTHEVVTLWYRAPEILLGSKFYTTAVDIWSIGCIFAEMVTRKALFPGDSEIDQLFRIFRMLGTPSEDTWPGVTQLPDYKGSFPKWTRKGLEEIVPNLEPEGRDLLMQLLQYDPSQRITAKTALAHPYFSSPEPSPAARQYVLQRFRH
# [46] = target: Serine/threonine-protein kinase pim-3 (Homo sapiens) (UniProt Q86V86); details: Compound concentration 1000.0 nM
# Sequence of 5-hydroxytryptamine receptor 2C (Homo sapiens) (P28335 whole entry): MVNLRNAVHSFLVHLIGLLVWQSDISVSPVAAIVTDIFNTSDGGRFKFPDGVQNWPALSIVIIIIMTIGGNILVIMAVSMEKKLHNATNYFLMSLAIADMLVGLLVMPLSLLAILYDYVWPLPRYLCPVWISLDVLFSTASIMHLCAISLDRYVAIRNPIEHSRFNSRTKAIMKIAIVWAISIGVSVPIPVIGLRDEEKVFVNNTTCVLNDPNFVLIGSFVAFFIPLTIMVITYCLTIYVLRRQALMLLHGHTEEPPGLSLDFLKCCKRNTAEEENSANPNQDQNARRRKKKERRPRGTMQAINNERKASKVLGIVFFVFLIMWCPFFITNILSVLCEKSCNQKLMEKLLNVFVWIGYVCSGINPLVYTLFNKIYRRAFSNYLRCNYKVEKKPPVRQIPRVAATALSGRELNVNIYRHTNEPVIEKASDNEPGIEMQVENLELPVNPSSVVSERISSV
structure (smiles),measurement,setting,value
COc1cccc(CNC(=O)c2nc3scc(COCc4ccc(C(=O)O)cc4)c3c(=O)[nH]2)c1 [T-26c],residual activity,[1],100%
same,residual activity,[2],63.2%
same,inhibition,[3],12.5%
same,residual activity,[4],91.1%
same,residual activity,[5],93.6%
same,residual activity,[6],86.4%
same,residual activity,[7],76.7%
same,residual activity,[8],80.3%
same,residual activity,[9],84.2%
same,residual activity,[10],92.5%
same,residual activity,[11],100%
same,residual activity,[12],100%
same,residual activity,[13],85%
same,residual activity,[14],72.3%
same,residual activity,[15],89.5%
same,residual activity,[16],72.1%
same,residual activity,[17],100%
same,residual activity,[18],64.5%
same,residual activity,[19],100%
same,residual activity,[20],100%
same,residual activity,[21],100%
same,residual activity,[22],87.2%
same,residual activity,[23],95.7%
same,residual activity,[24],69.5%
same,residual activity,[25],90%
same,residual activity,[26],100%
same,residual activity,[27],67%
same,residual activity,[28],100%
same,inhibition,[29],3.29%
same,residual activity,[30],76.2%
same,residual activity,[31],70.4%
same,residual activity,[32],94.6%
same,residual activity,[33],67.1%
same,residual activity,[34],100%
same,residual activity,[35],83%
same,residual activity,[36],100%
same,residual activity,[37],100%
same,residual activity,[38],85.4%
same,residual activity,[39],73.2%
same,residual activity,[40],72.5%
same,residual activity,[41],100%
same,residual activity,[42],73.1%
same,Ki,[43],98 nM
same,residual activity,[44],96.9%
same,residual activity,[45],100%
same,residual activity,[46],100%
